Measured values as given in patent publication US8110566B2, “Therapeutic agents 713” (AstraZeneca AB, priority 2009, dated 2012).

How the values were obtained:
[1] = target: T1, human Melanin Concentrating Hormone receptor 1 (MCHR1) (Homo sapiens, UniProt Q99705); assay: MCHr1 IC50 (MCH binding assay / MCHR1 receptor activation assay)
T1 construct: host or cells: CHO-K1 (membranes)

[2] = target: T2, human histamine H3 receptors (Homo sapiens, UniProt Q9Y5N1); assay: Histamine H3 SPA with [3H]-N-α-methylhistamine and/or GTPγS binding assay
T2 construct: human histamine H3 receptors (full-length H3, the most prevalent brain isoform 445); host or cells: CHO-K1, stably expressing (membranes)
T2 sequence (Q9Y5N1 whole entry, canonical isoform): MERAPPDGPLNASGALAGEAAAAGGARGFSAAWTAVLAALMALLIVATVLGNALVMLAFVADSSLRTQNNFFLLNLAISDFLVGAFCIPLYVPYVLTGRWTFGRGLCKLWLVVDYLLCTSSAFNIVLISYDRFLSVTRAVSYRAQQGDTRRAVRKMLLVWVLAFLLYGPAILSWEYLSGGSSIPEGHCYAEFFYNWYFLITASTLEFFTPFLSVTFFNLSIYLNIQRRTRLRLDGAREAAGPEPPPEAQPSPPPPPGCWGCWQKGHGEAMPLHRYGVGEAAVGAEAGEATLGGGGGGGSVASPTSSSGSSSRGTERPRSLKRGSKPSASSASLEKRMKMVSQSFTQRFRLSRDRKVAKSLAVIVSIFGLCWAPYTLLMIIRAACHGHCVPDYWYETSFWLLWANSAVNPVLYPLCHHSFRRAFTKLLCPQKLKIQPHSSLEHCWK

T1 sequence (Q99705 whole entry): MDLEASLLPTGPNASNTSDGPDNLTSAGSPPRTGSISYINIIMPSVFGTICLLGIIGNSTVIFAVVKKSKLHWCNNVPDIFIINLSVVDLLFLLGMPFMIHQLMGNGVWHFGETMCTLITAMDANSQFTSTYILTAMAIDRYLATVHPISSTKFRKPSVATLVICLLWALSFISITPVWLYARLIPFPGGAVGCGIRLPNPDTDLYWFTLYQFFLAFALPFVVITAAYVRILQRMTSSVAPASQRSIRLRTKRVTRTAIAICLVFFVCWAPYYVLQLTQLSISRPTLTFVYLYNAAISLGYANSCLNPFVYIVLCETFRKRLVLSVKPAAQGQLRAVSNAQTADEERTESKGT

| SMILES | IC50 [1] [nM] | IC50 [2] [nM] |
| --- | --- | --- |
| O=C(c1nnc(-c2ccccc2)o1)N1CC(Oc2ccc(CN3CC4(COC4)C3)c(Cl)c2)C1 [Example 1, (3-(4-(2-Oxa-6-azaspiro[3.3]heptan-6-ylmethyl)-3-chlorophenoxy)azetidin-1-yl)(5-phenyl-1,3,4-oxadiazol-2-yl)methanone] | 17 | 410 |
| O=C(c1nnc(-c2ccc(Cl)cc2)o1)N1CC(Oc2ccc(CN3CC4(COC4)C3)cc2)C1 [Example 2, (3-(4-(2-Oxa-6-azaspiro[3.3]heptan-6-ylmethyl)phenoxy)azetidin-1-yl)(5-(4-chlorophenyl)-1,3,4-oxadiazol-2-yl)methanone] | 10 | 620 |
| O=C(c1nnc(-c2ccccc2)o1)N1CC(Oc2ccc(CN3CC4(COC4)C3)cc2)C1 [Example 3, (3-(4-(2-Oxa-6-azaspiro[3.3]heptan-6-ylmethyl)phenoxy)azetidin-1-yl)(5-phenyl-1,3,4-oxadiazol-2-yl)methanone] | – | 800 |
| O=C(c1nnc(-c2ccccc2)o1)N1CC(Sc2ccc(CN3CC4(COC4)C3)cc2)C1 [Example 5, (3-(4-(2-Oxa-6-azaspiro[3.3]heptan-6-ylmethyl)phenylthio)azetidin-1-yl)(5-phenyl-1,3,4-oxadiazol-2-yl)methanone] | 17 | – |
| O=C(c1nnc(-c2ccc(F)cc2)o1)N1CC(Oc2ccc(CN3CC4(COC4)C3)cc2)C1 [Example 6, (3-(4-(2-Oxa-6-azaspiro[3.3]heptan-6-ylmethyl)phenoxy)azetidin-1-yl)(5-(4-fluorophenyl)-1,3,4-oxadiazol-2-yl)methanone] | 24 | – |
| O=C(c1nnc(-c2ccc(OC(F)F)cc2)o1)N1CC(Oc2ccc(CN3CC4(COC4)C3)cc2)C1 [Example 7, (3-(4-(2-Oxa-6-azaspiro[3.3]heptan-6-ylmethyl)phenoxy)azetidin-1-yl)(5-(4-(difluoromethoxy)phenyl)-1,3,4-oxadiazol-2-yl)methanone] | 12 | – |
| O=C(c1nnc(-c2ccccc2)o1)N1CC(Oc2ccc(CN3CC4(COC4)C3)cc2Cl)C1 [Example 8, (3-(4-(2-Oxa-6-azaspiro[3.3]heptan-6-ylmethyl)-2-chlorophenoxy)azetidin-1-yl)(5-phenyl-1,3,4-oxadiazol-2-yl)methanone] | 24 | – |
| COc1ccc(-c2nnc(C(=O)N3CC(Oc4ccc(CN5CC6(C5)OCC6(C)C)cc4)C3)o2)cc1 [Example 9, (3-(4-((3,3-Dimethyl-1-oxa-6-azaspiro[3.3]heptan-6-yl)methyl)phenoxy)azetidin-1-yl)(5-(4-methoxyphenyl)-1,3,4-oxadiazol-2-yl)methanone] | 27 | – |
| CC1(C)COC12CN(Cc1ccc(OC3CN(C(=O)c4nnc(-c5ccccc5)o4)C3)c(Cl)c1)C2 [Example 10, (3-(2-Chloro-4-((3,3-dimethyl-1-oxa-6-azaspiro[3.3]heptan-6-yl)methyl)phenoxy)azetidin-1-yl)(5-phenyl-1,3,4-oxadiazol-2-yl)methanone] | 30 | – |
